# Patent US9907797B2, “Combination therapies for overcoming resistance to mitotic agents during chemotherapy” (EMORY UNIVERSITY, priority 2014, dated 2018)
# What was measured:
# [1] = molecular target: T1, PARP1-CHFR interaction (Homo sapiens, UniProt Q96EP1); assay: Glutathione affinity pull-down of GST tagged PARP1 with CHFR in HEK293 cells; type: cell-based; conditions: 10 uM, 16 hours
# T1 construct: expressed in transfected cells; CHFR endogenous
# T1 sequence (Q96EP1 1-664): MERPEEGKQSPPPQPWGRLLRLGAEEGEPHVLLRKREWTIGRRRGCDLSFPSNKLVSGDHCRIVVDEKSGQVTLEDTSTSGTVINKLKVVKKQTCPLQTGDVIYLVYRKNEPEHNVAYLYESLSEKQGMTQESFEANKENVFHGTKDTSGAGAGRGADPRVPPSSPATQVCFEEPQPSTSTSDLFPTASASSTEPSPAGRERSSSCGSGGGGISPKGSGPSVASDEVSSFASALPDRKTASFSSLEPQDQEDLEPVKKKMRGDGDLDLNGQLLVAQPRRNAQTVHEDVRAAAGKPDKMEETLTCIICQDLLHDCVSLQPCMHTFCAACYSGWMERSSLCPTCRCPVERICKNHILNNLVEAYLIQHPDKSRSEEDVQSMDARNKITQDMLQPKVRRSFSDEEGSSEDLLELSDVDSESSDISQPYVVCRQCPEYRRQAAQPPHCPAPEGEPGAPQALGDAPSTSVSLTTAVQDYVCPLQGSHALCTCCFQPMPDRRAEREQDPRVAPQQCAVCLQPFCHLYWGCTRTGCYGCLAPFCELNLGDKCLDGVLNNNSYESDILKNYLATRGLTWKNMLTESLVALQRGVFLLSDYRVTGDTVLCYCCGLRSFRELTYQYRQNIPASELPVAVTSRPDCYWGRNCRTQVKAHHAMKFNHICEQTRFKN
# Procedure: In an attempt to generate possible lead compounds for the pharmacologic inhibition of the CHFR-PARP1 interaction, a high throughput computational screen of 5,256,508 chemical structures in the MCULE database of purchasable compounds using the AutoDockVina algorithm against the published crystal structure of the CHFR-PBZ domain was performed. The 10 most promising ‘hits’ based on Autodock Vina docking scores (<−9.7) were selected for further characterization. Commercially available compounds were tested for their impact on nuclear CHFR levels (FIG. 3A). Several compounds, including ‘A2’, ‘A3’, ‘A4’ and ‘A6’ decreased CHFR levels assayed by western blotting of whole cell extracts. The impact of the above referenced compounds on the PARP1/CHFR interaction were evaluated. HEK293 cells were transfected with GST tagged PARP1 and the interaction with CHFR determined in pull down assays for those 4 compounds. […] In contrast to treatment with ABT-888, ‘A3’ completely disrupted the interaction between GST-tagged PARP-1 and CHFR (FIG. 3B). […] Since it is possible that the co-immunoprecipitation between PARP-1 and CHFR after ‘A3’ treatment was negative due to the fact that CHFR was degraded, the experiment was repeated after transfection with the Ring-domain deleted ΔR-CHFR construct, which maintained both stable CHFR and PARP1 levels even after treatment with ‘A3’. […]
# [2] = Toxicity in treated xenograft mice; type: in vivo; conditions: combination treatment with A3 and docetaxel, 10 days after treatment
# [3] = molecular target: PARP1 (Homo sapiens, UniProt P09874); assay: In vitro parylation studies; type: biochemical
# [4] = test system: A549 cells; assay: Colony formation assays in A549 cells transfected with shRNA; type: cell-based
# Procedure: Various cell lines of different tissues of origin and with different CHFR expression status were exposed to 1 hour of docetaxel and 72 hours of ‘A3’. Effects were defined as 1−colony count (treatment)/colony count (control). The nature of the interaction between the two compounds was analyzed by the Bliss additivity method. […] For subsequent colony formation assays, cell lines were characterized into CHFR expressing vs. CHFR deficient cell lines by Western-Blot.
# FIG. 4D knock-down of either CHFR or PARP1 in A549 cells alleviates the synergy that is observed in A549 cells transfected with scrambled shRNA. (*=synergy)
# Finally, colony formation assays were performed on a panel of cell lines of different cancer types such as lung-, breast-, and colon cancer.
# [5] = test system: H460 cell line; assay: Tumor growth in H460 mouse xenografts; type: in vivo, nude mice
# Procedure: Pharmacokinetics of A3 were performed at various time points after iv and oral administration of a single dose of ‘A3’ at 10 mg/kg. 2.5×10^5 H460 cells were transplanted into the flank of nude mice were. 5 days after transplant, I.P. injection of DMSO, A3, docetaxel, or combination commenced. Explanted tumors are smallest in mice that were treated with combination therapy.
# The in-vivo effects of ‘A3’, docetaxel and the combination on tumor growth in mouse xenografts, who were previously injected with the H460 cell line were evaluated.
# [6] = test system: CHFR-PARP1 interaction; assay: Glutathione affinity purification of Ring-domain deleted ΔR-CHFR and PARP1 in HEK293 cells; type: cell-based; conditions: increasing concentrations, 16 hours, ΔR-CHFR construct
# Procedure: HEK293 cells were stably transfected with the pDEST27-AR-CHFR construct. Deletion of the RING domain in this construct leads to both stable CHFR and PARP1 expression that is unaltered by treatment with increasing concentrations of ‘A3’ for 16 hours. Nonetheless, the interaction between glutathione-affinity purified CHFR-ΔR and PARP1 was decreased by ‘A3’ in a dose dependent fashion. A549 cells were incubated for 16.5 hrs with MG132 and indicated A3 concentration for 16 hrs. At 10 uM A3 concentration CHFR staining is diminished in the nucleus Cells are stained with CHFR.
# In an attempt to generate possible lead compounds for the pharmacologic inhibition of the CHFR-PARP1 interaction, a high throughput computational screen of 5,256,508 chemical structures in the MCULE database of purchasable compounds using the AutoDockVina algorithm against the published crystal structure of the CHFR-PBZ domain was performed. The 10 most promising ‘hits’ based on Autodock Vina docking scores (<−9.7) were selected for further characterization. Commercially available compounds were tested for their impact on nuclear CHFR levels (FIG. 3A). […] The impact of the above referenced compounds on the PARP1/CHFR interaction were evaluated. HEK293 cells were transfected with GST tagged PARP1 and the interaction with CHFR determined in pull down assays for those 4 compounds. […]
# [7] = test system: A549 cells; assay: Cell viability assay, A3 with docetaxel; type: cell-based
# [8] = molecular target: T2, CHFR (Homo sapiens, UniProt Q96EP1); assay: CHFR immunohistochemistry in A549 tumor xenografts; type: in vivo, nude mice; design: endogenous in cells; host or cells: A549 cells grown as flank xenografts in nude mice; conditions: single ip injection 10 mg/kg
# T2 sequence (Q96EP1 1-664): T1 sequence (Q96EP1 1-664)
# Procedure: 4 hrs after i.p. injection a significant reduction in nuclear CHFR staining was observed, indicating an in vivo reproducible pharmacodynamic effect of ‘A3’.
# ‘A3’ is capable of disrupting the interaction between CHFR and PARP1 in vitro, leading to a depletion of CHFR expression and to sensitization towards the cytotoxic effects of taxanes. The impact of ‘A3’ administration on lung tumor xenografts was evaluated. A549 NSCLC cells were injected into the flank of nude mice and allowed to establish for approximately 14 days. Once tumors had reached a volume about 100 mm3, mice received a single ip injection of ‘A3’ at 10 mg/kg. Mice were then euthanized at 1, 2, 4 and 24 hours after and CHFR in the xenografts was analyzed by immunohistochemistry (FIG. 5A).
# Sequence of PARP1 (P09874 whole entry, species assumed): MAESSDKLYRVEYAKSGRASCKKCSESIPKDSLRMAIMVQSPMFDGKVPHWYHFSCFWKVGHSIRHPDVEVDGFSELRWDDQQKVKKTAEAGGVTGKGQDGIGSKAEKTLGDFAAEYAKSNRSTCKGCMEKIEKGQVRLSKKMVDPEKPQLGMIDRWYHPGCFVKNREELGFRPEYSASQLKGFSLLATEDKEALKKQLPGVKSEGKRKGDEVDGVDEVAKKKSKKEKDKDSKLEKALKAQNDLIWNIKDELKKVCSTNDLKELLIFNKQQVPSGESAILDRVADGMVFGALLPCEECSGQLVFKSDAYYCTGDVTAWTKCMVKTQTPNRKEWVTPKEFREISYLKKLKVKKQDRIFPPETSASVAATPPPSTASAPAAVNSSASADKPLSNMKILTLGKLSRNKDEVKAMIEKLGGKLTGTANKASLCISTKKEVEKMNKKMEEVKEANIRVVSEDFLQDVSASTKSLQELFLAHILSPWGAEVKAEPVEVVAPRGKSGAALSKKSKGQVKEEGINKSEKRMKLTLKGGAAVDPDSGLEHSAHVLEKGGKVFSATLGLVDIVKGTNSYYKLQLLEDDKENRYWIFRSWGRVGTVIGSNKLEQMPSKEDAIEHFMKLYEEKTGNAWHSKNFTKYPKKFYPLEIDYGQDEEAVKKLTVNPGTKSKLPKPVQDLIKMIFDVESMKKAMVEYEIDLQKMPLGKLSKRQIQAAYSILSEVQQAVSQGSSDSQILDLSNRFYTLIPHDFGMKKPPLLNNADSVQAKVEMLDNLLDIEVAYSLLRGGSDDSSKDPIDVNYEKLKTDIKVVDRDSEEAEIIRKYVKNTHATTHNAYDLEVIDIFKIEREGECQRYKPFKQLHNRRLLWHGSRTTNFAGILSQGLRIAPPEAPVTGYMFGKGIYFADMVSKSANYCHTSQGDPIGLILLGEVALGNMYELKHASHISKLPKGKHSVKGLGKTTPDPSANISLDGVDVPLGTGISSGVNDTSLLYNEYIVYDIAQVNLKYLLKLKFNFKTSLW
smiles,measurement,setting,value
"Cc1ccc(N2C(=O)NC(=O)C(=Cc3cn(Cc4ccccc4)c4ccccc34)C2=O)cc1C [A3, 5-((1-benzyl-1H-indol-3-yl)methylene)-1-(3,4-dimethylphenyl)pyrimidine-2,4,6(1H,3H,5H)-trione]",interaction between PARP1 and CHFR,[1],completely inhibited an interaction between PARP1 and CHFR
same,"hematologic, hepatic and renal toxicity",[2],"not associated with a significant increase in hematologic, hepatic and renal toxicity"
same,PARP1 auto-parylation,[3],no impact on PARP1 auto-parylation
same,"synergy between A3 and docetaxel, colony formation",[4]; A549 after CHFR or PARP1 knockdown,not after CHFR or PARP1 knockdown
same,"synergy between A3 and docetaxel, colony formation",[4]; A549 scrambled shRNA,Synergy between A3 and docetaxel was maintained only in the A549 scramble cell line
same,tumor growth,"[5]; A3 alone compared to DMSO alone, I.P.",did not have a discernable effect on tumor growth
same,tumor size,"[5]; A3 given 4 hours prior to docetaxel, compared to docetaxel alone",significantly decreased tumor size
same,interaction between CHFR-ΔR and PARP1,[6],dose dependent inhibition of the interaction between CHFR and PARP1
same,nature of interaction of A3 and docetaxel by combination index,[7]; 10 and 20 uM/nM concentrations,synergistic effects
same,"cell viability, combination treated cells","[7]; A3 plus docetaxel, 10 and 20 nM concentrations, 72 hours, p<0.01",statistically significantly decreased viability
same,Combination index (CI),"[7]; A3 with docetaxel, A549 cells, 72 hours, Chou-Talaley method",< 1
same,nuclear CHFR expression in xenografts,[8]; 24 hr time point,restored to baseline levels
same,nuclear CHFR expression in xenografts,[8]; after 4 hours,Significant suppression of nuclear CHFR expression
